Laboratory results as given in patent US8859574B2 (IRM LLC, priority 2008, dated 2014).

biological target: T1, IGF-1R Ba/F3 (Homo sapiens, UniProt P08069); experiment: Ba/F3 Cell Viability Inhibition Assay (IGF-1R Ba/F3); format: cell-based, murine; conditions: Tel-TK transformed Ba/F3 cells, 48 hours, Britelite luminescence
T1 construct: fused on or other part: TEL- (or BCR-) IGF-1R in Ba/F3: the kinase part holds the site
Procedure, shortened: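 A 48 h compound treatment at 37 °C (3750 cells/well) was followed by Britelite luminescence to measure viability. Cells were Ba/F3 pro-B cells, IL-3-independent via TEL-fused IGF-1R kinase transduction. A logistic fit gave IC50 as 50% viability relative to DMSO control.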

T1 sequence (P08069 999-1274 limits assumed): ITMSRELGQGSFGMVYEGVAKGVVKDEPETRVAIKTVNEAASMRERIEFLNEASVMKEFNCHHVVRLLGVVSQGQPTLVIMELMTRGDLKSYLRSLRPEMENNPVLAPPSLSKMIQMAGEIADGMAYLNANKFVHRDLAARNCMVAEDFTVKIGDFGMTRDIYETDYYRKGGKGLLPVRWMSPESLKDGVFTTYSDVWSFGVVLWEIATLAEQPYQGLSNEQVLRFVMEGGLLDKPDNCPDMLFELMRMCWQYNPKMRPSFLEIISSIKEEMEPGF

Point of comparison: Cc1cc(Nc2nc(Nc3cc(C)c(C4CCN(Cc5noc(C(C)C)n5)CC4)cc3C)ncc2Cl)n[nH]1 [Compound 305, 5-chloro-N2-(4-(1-((5-isopropyl-1,2,4-oxadiazol-3-yl)methyl)piperidin-4-yl)-2,5-dimethylphenyl)-N4-(5-methyl-1H-pyrazol-3-yl)pyrimidine-2,4-diamine], IC50 25 nM. Against it:
- CNC1(C(=O)N2CCC(c3cc(C)c(Nc4ncc(Cl)c(Nc5cc(C)[nH]n5)n4)cc3C)CC2)CC1 [Compound 90, (4-(4-(5-chloro-4-(5-methyl-1H-pyrazol-3-ylamino)pyrimidin-2-ylamino)-2,5-dimethylphenyl)piperidin-1-yl)(1-(methylamino)cyclopropyl)methanone] — 5-fold lower, 5 nM
- COc1cc(Nc2ncc(Cl)c(Nc3cc(C)[nH]n3)n2)c(C)cc1C1CCN(C[C@@H](O)C(F)(F)F)CC1 [Compound 228, (R)-3-(4-(4-(5-chloro-4-(5-methyl-1H-pyrazol-3-ylamino)pyrimidin-2-ylamino)-2-methoxy-5-methylphenyl)piperidin-1-yl)-1,1,1-trifluoropropan-2-ol] — within 1.5-fold, 23 nM
- CCc1cc(Nc2nc(Nc3cc(C)c(C4CCN(C)CC4)cc3F)ncc2Cl)n[nH]1 [Compound 271, 5-chloro-N4-(5-ethyl-1H-pyrazol-3-yl)-N2-(2-fluoro-5-methyl-4-(1-methylpiperidin-4-yl)phenyl)pyrimidine-2,4-diamine] — 1.9-fold lower, 13 nM
- CCN1CCC(c2cc(F)c(Nc3ncc(Cl)c(Nc4cc(C)[nH]n4)n3)cc2C(F)(F)F)CC1 [Compound 240, 5-chloro-N2-(4-(1-ethylpiperidin-4-yl)-2-fluoro-5-(trifluoromethyl)phenyl)-N4-(5-methyl-1H-pyrazol-3-yl)pyrimidine-2,4-diamine] — 4.1-fold higher, 102 nM
- Cc1cc(Nc2nc(Nc3cc(C)c(C4CCN(CCS(=O)(=O)N(C)C)CC4)cc3F)ncc2Cl)n[nH]1 [Compound 58, 2-(4-(4-(5-chloro-4-(5-methyl-1H-pyrazol-3-ylamino)pyrimidin-2-ylamino)-5-fluoro-2-methylphenyl)piperidin-1-yl)-N,N-dimethylethanesulfonamide] — within 1.5-fold, 36 nM
- Cc1cc(Nc2nc(Nc3cc(C)c(C4CCN([C@H](C)C(N)=O)CC4)cc3F)ncc2Cl)n[nH]1 [Compound 165, (R)-2-(4-(4-(5-chloro-4-(5-methyl-1H-pyrazol-3-ylamino)pyrimidin-2-ylamino)-5-fluoro-2-methylphenyl)piperidin-1-yl)propanamide] — 1.5-fold higher, 38 nM
- Cc1cc(Nc2nc(Nc3cc(C)c(C4CCN(CCS(N)(=O)=O)CC4)cc3F)ncc2Cl)n[nH]1 [Compound 59, 2-(4-(4-(5-chloro-4-(5-methyl-1H-pyrazol-3-ylamino)pyrimidin-2-ylamino)-5-fluoro-2-methylphenyl)piperidin-1-yl)ethanesulfonamide] — 1.5-fold higher, 38 nM
- Cc1cc(Nc2nc(Nc3cc(C)c(C4CCN(C5CCC5)CC4)cc3F)ncc2Cl)n[nH]1 [Compound 272, 5-chloro-N2-(4-(1-cyclobutylpiperidin-4-yl)-2-fluoro-5-methylphenyl)-N4-(5-methyl-1H-pyrazol-3-yl)pyrimidine-2,4-diamine] — 2-fold higher, 50 nM
- Cc1cc(Nc2nc(Nc3cc(C)c(C4CCN(C(=O)C5(N)CCC5)CC4)cc3C)ncc2Cl)n[nH]1 [Compound 91, (1-aminocyclobutyl)(4-(4-(5-chloro-4-(5-methyl-1H-pyrazol-3-ylamino)pyrimidin-2-ylamino)-2,5-dimethylphenyl)piperidin-1-yl)methanone] — 2.1-fold higher, 52 nM
- Cc1cc(Nc2nc(Nc3cc(C)c(C4CCN(C(=O)C5(N(C)C)CCC5)CC4)cc3C)ncc2Cl)n[nH]1 [Compound 92, (4-(4-(5-chloro-4-(5-methyl-1H-pyrazol-3-ylamino)pyrimidin-2-ylamino)-2,5-dimethylphenyl)piperidin-1-yl)(1-(dimethylamino)cyclobutyl)methanone] — 1.7-fold lower, 15 nM
- Cc1cc(Nc2nc(Nc3cc(C)c(C4CCN(CCO)CC4)cc3F)ncc2Cl)n[nH]1 [Compound 22, 2-(4-(4-(5-chloro-4-(5-methyl-1H-pyrazol-3-ylamino)pyrimidin-2-ylamino)-5-fluoro-2-methylphenyl)piperidin-1-yl)ethanol] — 2.4-fold higher, 59 nM
- CNC(=O)CN1CCC(c2cc(C)c(Nc3ncc(Cl)c(Nc4cc(C)[nH]n4)n3)cc2Cl)CC1 [Compound 45, 2-(4-(2-chloro-4-(5-chloro-4-(5-methyl-1H-pyrazol-3-ylamino)pyrimidin-2-ylamino)-5-methylphenyl)piperidin-1-yl)-N-methylacetamide] — within 1.5-fold, 18 nM
- Cc1cc(Nc2nc(Nc3cc(C)c(C4CCN(Cc5noc(C(C)C)n5)CC4)cc3F)ncc2Cl)n[nH]1 [Compound 285, 5-chloro-N2-(2-fluoro-4-(1-((5-isopropyl-1,2,4-oxadiazol-3-yl)methyl)piperidin-4-yl)-5-methylphenyl)-N4-(5-methyl-1H-pyrazol-3-yl)pyrimidine-2,4-diamine] — 2.7-fold higher, 68 nM
- Cc1cc(Nc2nc(Nc3cc(Cl)c(C4CCN(C(=O)CN(C)C)CC4)cc3C)ncc2Cl)n[nH]1 [Compound 74, 1-(4-(2-chloro-4-(5-chloro-4-(5-methyl-1H-pyrazol-3-ylamino)pyrimidin-2-ylamino)-5-methylphenyl)piperidin-1-yl)-2-(dimethylamino)ethanone] — 3.6-fold lower, 7 nM
- Cc1cc(Nc2nc(Nc3cc(C)c(C4CCN(C(=O)c5oc(C)nc5C)CC4)cc3F)ncc2Cl)n[nH]1 [Compound 127, (4-(4-(5-chloro-4-(5-methyl-1H-pyrazol-3-ylamino)pyrimidin-2-ylamino)-5-fluoro-2-methylphenyl)piperidin-1-yl)(2,4-dimethyloxazol-5-yl)methanone] — within 1.5-fold, 27 nM
- Cc1cc(Nc2nc(Nc3cc(C)c(C4CCN(CC5CC5(F)F)CC4)cc3F)ncc2C(F)(F)F)n[nH]1 (stereo not shown) [Compound 251, N^2-(4-(1-((2,2-difluorocyclopropyl)methyl)piperidin-4-yl)-2-fluoro-5-methylphenyl)-N^4-(5-methyl-1H-pyrazol-3-yl)-5-(trifluoromethyl)pyrimidine-2,4-diamine] — 2.1-fold higher, 52 nM
- Cc1cc(Nc2nc(Nc3cc(C)c(C4CCN(CCC#N)CC4)cc3F)ncc2Cl)n[nH]1 [Compound 200, 3-(4-(4-(5-chloro-4-(5-methyl-1H-pyrazol-3-ylamino)pyrimidin-2-ylamino)-5-fluoro-2-methylphenyl)piperidin-1-yl)propanenitrile] — within 1.5-fold, 36 nM
- CCS(=O)(=O)CCN1CCC(c2cc(F)c(Nc3ncc(Cl)c(Nc4cc(C)[nH]n4)n3)cc2C)CC1 [Compound 57, 5-chloro-N2-(4-(1-(2-(ethylsulfonyl)ethyl)piperidin-4-yl)-2-fluoro-5-methylphenyl)-N4-(5-methyl-1H-pyrazol-3-yl)pyrimidine-2,4-diamine] — within 1.5-fold, 21 nM
- Cc1cc(Nc2nc(Nc3cc(C)c(C4CCN(C(=O)C5(O)CC5)CC4)cc3F)ncc2Cl)n[nH]1 [Compound 192, (4-(4-(5-chloro-4-(5-methyl-1H-pyrazol-3-ylamino)pyrimidin-2-ylamino)-5-fluoro-2-methylphenyl)piperidin-1-yl)(1-hydroxycyclopropyl)methanone] — within 1.5-fold, 21 nM
- CCN(CC)CC(=O)N1CCC(c2cc(F)c(Nc3ncc(Cl)c(Nc4cc(C)[nH]n4)n3)cc2C)CC1 [Compound 81, 1-(4-(4-(5-chloro-4-(5-methyl-1H-pyrazol-3-ylamino)pyrimidin-2-ylamino)-5-fluoro-2-methylphenyl)piperidin-1-yl)-2-(diethylamino)ethanone] — within 1.5-fold, 30 nM
- COCC(=O)N1CCC(c2cc(C)c(Nc3ncc(Cl)c(Nc4cc(C)[nH]n4)n3)cc2C)CC1 [Compound 106, 1-(4-(4-(5-chloro-4-(5-methyl-1H-pyrazol-3-ylamino)pyrimidin-2-ylamino)-2,5-dimethylphenyl)piperidin-1-yl)-2-methoxyethanone] — 12-fold lower, 2 nM
- Cc1cc(Nc2nc(Nc3cc(C)c(C4CCN(C5CCN(S(C)(=O)=O)C5)CC4)cc3F)ncc2Cl)n[nH]1 (stereo not shown) [Compound 301, 5-chloro-N2-(2-fluoro-5-methyl-4-(1-(1-(methylsulfonyl)pyrrolidin-3-yl)piperidin-4-yl)phenyl)-N4-(5-methyl-1H-pyrazol-3-yl)pyrimidine-2,4-diamine] — 1.5-fold higher, 38 nM
- Cc1cc(Nc2nc(Nc3cc(Cl)c(C4CCN(CCC(F)(F)F)CC4)cc3C)ncc2Cl)n[nH]1 [Compound 27, 5-chloro-N2-(5-chloro-2-methyl-4-(1-(3,3,3-trifluoropropyl)piperidin-4-yl)phenyl)-N4-(5-methyl-1H-pyrazol-3-yl)pyrimidine-2,4-diamine] — 1.8-fold higher, 44 nM
- Cc1cc(Nc2nc(Nc3cc(C)c(C4CCN(C(=O)C5CCNCC5)CC4)cc3F)ncc2Cl)n[nH]1 [Compound 115, (4-(4-(5-chloro-4-(5-methyl-1H-pyrazol-3-ylamino)pyrimidin-2-ylamino)-5-fluoro-2-methylphenyl)piperidin-1-yl)(piperidin-4-yl)methanone] — 63-fold higher, 1570 nM
- Cc1cc(Nc2nc(Nc3cc(C)c(C4CCN(C5CCC6(CC5)OCCO6)CC4)cc3F)ncc2Cl)n[nH]1 [Compound 283, N2-(4-(1-(1,4-dioxaspiro[4.5]decan-8-yl)piperidin-4-yl)-2-fluoro-5-methylphenyl)-5-chloro-N4-(5-methyl-1H-pyrazol-3-yl)pyrimidine-2,4-diamine] — 1.6-fold lower, 16 nM
- Cc1cc(Nc2nc(Nc3cc(C)c(C4CCN(C)C(C)C4)cc3F)ncc2Cl)n[nH]1 (stereo not shown) [Compound 275, 5-chloro-N2-(4-(1,2-dimethylpiperidin-4-yl)-2-fluoro-5-methylphenyl)-N4-(5-methyl-1H-pyrazol-3-yl)pyrimidine-2,4-diamine] — 2.8-fold lower, 9 nM
- Cc1cc(Nc2nc(Nc3cc(C)c(C4CCN(Cc5cccnc5)CC4)cc3F)ncc2Cl)n[nH]1 [Compound 297, 5-chloro-N2-(2-fluoro-5-methyl-4-(1-(pyridin-3-ylmethyl)piperidin-4-yl)phenyl)-N4-(5-methyl-1H-pyrazol-3-yl)pyrimidine-2,4-diamine] — 3.2-fold higher, 79 nM
